Each structure is given as a SMILES string.

Drawing on patent publication US20110313156A1 (BOEHRINGER INGELHEIM INTERNATIONAL GMBH, priority 2008, published 2011), this text covers remaining activity for 31 compounds.

For the assay, the target named is T1, His6-PDK1 (aa 52-556) (Homo sapiens, UniProt O15530).
T1 construct: 15 μL His6-PDK1 (aa 52-556) 3.33 ng/well); host or cells: baculovirus-infected insect cells
T1 sequence (O15530 52-556): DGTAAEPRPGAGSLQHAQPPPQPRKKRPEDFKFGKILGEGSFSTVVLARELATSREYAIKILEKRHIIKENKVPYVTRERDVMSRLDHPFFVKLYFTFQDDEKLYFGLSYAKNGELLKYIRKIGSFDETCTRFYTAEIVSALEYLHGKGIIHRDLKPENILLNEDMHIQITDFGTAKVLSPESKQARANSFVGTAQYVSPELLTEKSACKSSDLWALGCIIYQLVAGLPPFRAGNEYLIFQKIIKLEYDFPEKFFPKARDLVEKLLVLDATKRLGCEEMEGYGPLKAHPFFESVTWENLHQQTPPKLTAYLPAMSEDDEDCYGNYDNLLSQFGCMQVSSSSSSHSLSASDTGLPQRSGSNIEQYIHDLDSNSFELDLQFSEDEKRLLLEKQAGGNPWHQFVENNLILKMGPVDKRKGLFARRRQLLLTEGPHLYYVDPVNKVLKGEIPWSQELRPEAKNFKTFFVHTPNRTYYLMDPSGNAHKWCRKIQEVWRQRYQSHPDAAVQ
Put plainly: PDK1 kinase assay III (with Tween 20). Type of assay: biochemical. The settings on record: compound at 10 μM; PDK1 kinase assay III (values without asterisk); read-out: % CTL (residual activity of the enzyme relative to DMSO control). On the procedure:
Purified enzyme may be obtained for example from the University of Dundee, Scotland.
Another PDK1 assay was developed which by comparison with PDK1 assay 1 additionally contains Tween 20:
The final concentration of Tween 20 is 0.005%.
The reaction is started by adding the ATP solution and the mixture is incubated for 90 min at ambient temperature; at the start of the reaction the dishes are shaken gently. The reaction is stopped by the addition of 50 μL/well of 500 mM phosphoric acid (H3PO4) and incubated for about 20 min at ambient temperature. […] The measured data are evaluated using Graphpad Prism software.
The % CTL values indicate the residual activity of the enzyme after the addition of the inhibitory compound in the solvent DMSO in relation to the enzyme activity in the solvent DMSO without the addition of a compound (control). The majority of the values were determined using the PDK1 kinase assay III described hereinbefore. The values marked with an asterisk (* or**) were determined using the PDK1 kinase assay II described hereinbefore (one asterisk→incubation for 24 h; two asterisks→incubation for 5 min)
For the compound `CN(C)Cc1ccc(Nc2ncc3cc(/C=C/CNC(=O)c4cc(Cl)nn(Cc5ccc(F)c(F)c5)c4=O)ccc3n2)cc1` [IV-39, 6-chloro-2-(3,4-difluorobenzyl)-N-{(2E)-3-[2-({4-[(dimethylamino)methyl]phenyl}amino)quinazolin-6-yl]prop-2-en-1-yl}-3-oxo-2,3-dihydropyridazine-4-carboxamide], the remaining activity at 10 µM came to 17.9%. In the case of `CN(C)Cc1ccc(Nc2ncc3cc(C#CCNC(=O)c4cncn(Cc5ccc(F)c(F)c5)c4=O)ccc3n2)cc1` [III-16, 1-(3,4-difluorobenzyl)-N-{3-[2-({4-[(dimethylamino)methyl]phenyl}amino)quinazolin-6-yl]prop-2-yn-1-yl}-6-oxo-1,6-dihydropyrimidine-5-carboxamide], the remaining activity at 10 µM is 9.5%. As for `CN(C)Cc1ccc(Nc2ncc3cc(/C=C/CNC(=O)c4cn(C)c(=O)n(Cc5ccc(F)c(F)c5)c4=O)ccc3n2)cc1` [IV-22, 3-(3,4-difluorobenzyl)-N-{(2E)-3-[2-({4-[(dimethylamino)methyl]phenyl}amino)-quinazolin-6-yl]prop-2-en-1-yl}-1-methyl-2,4-dioxo-1,2,3,4-tetrahydropyrimidine-5-carboxamide], the remaining activity at 10 µM is 19.7%. `NCCOc1cc(C#CCNC(=O)c2cncn(Cc3ccc(F)c(F)c3)c2=O)cc2cnc(Nc3ccc(N4CCOCC4)cc3)nc12`: the remaining activity at 10 µM came out at 18.3%. Under `Cc1c(C(=O)NC/C=C/c2cc(OCCN)c3nc(Nc4ccc(N5CCOCC5)cc4)ncc3c2)c(=O)n(Cc2ccc(F)c(F)c2)n1C` stands 13%; under `Cn1cc(C(=O)NC/C=C/c2ccc3c(c2)NC(=O)/C3=C\c2cnc[nH]2)c(=O)n(Cc2ccc(F)c(F)c2)c1=O` [I-43], 20.3%. For the compound `CN(C)Cc1ccc(Nc2ncc3cc(N4CC[C@@H](NC(=O)c5cncn(Cc6ccc(F)c(F)c6)c5=O)C4)ccc3n2)cc1` [IV-29, 1-(3,4-difluorobenzyl)-N-{(3R)-1-[2-({4-[(dimethylamino)methyl]phenyl}amino)-quinazolin-6-yl]pyrrolidin-3-yl}-6-oxo-1,6-dihydropyrimidine-5-carboxamide], the remaining activity at 10 µM turned out to be 14.7%. Then `Cc1c(C(=O)NC/C=C/c2ccc3c(c2)NC(=O)/C3=C\c2cnc[nH]2)c(=O)n(Cc2ccc(F)c(F)c2)n1C` [I-17, 2-(3,4-difluorobenzyl)-N-{(2E)-3-[(3Z)-3-(1H-imidazol-5-ylmethylidene)-2-oxo-2,3-dihydro-1H-indol-6-yl]prop-2-en-1-yl}-1,5-dimethyl-3-oxo-2,3-dihydro-1H-pyrazole-4-carboxamide], with 14.3%. Then `Cc1c[nH]c(/C=C2\C(=O)Nc3cc(/C=C/CNC(=O)c4cncn(Cc5ccc(F)c(F)c5)c4=O)cc(F)c32)n1` [I-48, 1-(3,4-difluorobenzyl)-N-[(2E)-3-{(3Z)-4-fluoro-3-[(4-methyl-1H-imidazol-2-yl)methylidene]-2-oxo-2,3-dihydro-1H-indol-6-yl}prop-2-en-1-yl]-6-oxo-1,6-dihydropyrimidine-5-carboxamide], with 23.1%; and `Cc1ncc(C(=O)NC/C=C/c2ccc3nc(Nc4ccc(CN(C)C)cc4)ncc3c2)c(=O)n1Cc1ccc(F)c(F)c1`, with 13.8%. Under `Cc1nc[nH]c1/C=C1\C(=O)Nc2cc(/C=C/CNC(=O)c3cncn(Cc4ccc(F)c(F)c4)c3=O)cc(F)c21` [I-47, 1-(3,4-difluorobenzyl)-N-[(2E)-3-{(3Z)-4-fluoro-3-[(4-methyl-1H-imidazol-5-yl)methylidene]-2-oxo-2,3-dihydro-1H-indol-6-yl}prop-2-en-1-yl]-6-oxo-1,6-dihydropyrimidine-5-carboxamide] stands 17.2%. On to `CN(C)Cc1ccc(Nc2ncc3cc(CCCNC(=O)c4cncn(Cc5ccc(F)c(F)c5)c4=O)ccc3n2)cc1` [IV-23, 1-(3,4-difluorobenzyl)-N-{3-[2-({4-[(dimethylamino)methyl]phenyl}amino)quinazolin-6-yl]propyl}-6-oxo-1,6-dihydropyrimidine-5-carboxamide], for which the remaining activity at 10 µM is 16.8%. With `CN1CCC(Nc2ccc(Nc3ncc4cc(C#CCNC(=O)c5nccn(Cc6ccc(F)c(F)c6)c5=O)ccc4n3)cc2F)CC1` [III-35, 4-(3,4-difluorobenzyl)-N-{3-[2-({3-fluoro-4-[(1-methylpiperidin-4-yl)amino]-phenyl}amino)quinazolin-6-yl]prop-2-yn-1-yl}-3-oxo-3,4-dihydropyrazine-2-carboxamide], the remaining activity at 10 µM stood at 14.9%. Then `Cc1c(C(=O)NC/C=C/c2ccc3c(c2)NC(=O)/C3=C\c2nc[nH]c2CN)c(=O)n(Cc2ccc(F)c(F)c2)n1C` [I-50, N-{(2E)-3-[(3Z)-3-{[5-(aminomethyl)-1H-imidazol-4-yl]methylidene}-2-oxo-2,3-dihydro-1H-indol-6-yl]prop-2-en-1-yl}-2-(3,4-difluorobenzyl)-1,5-dimethyl-3-oxo-2,3-di-hydro-1H-pyrazole-4-carboxamide], with 16.6%. On to `CN(C)CCCNC(=O)c1ccc(Nc2ncc3cc(C#CCNC(=O)c4cncn(Cc5ccc(F)c(F)c5)c4=O)ccc3n2)cc1`, for which the remaining activity at 10 µM was 18.3%. Then `CNC(=O)c1cccc(Nc2ncc3cc(C#CCNC(=O)c4c(C)n(C)n(Cc5ccc(F)c(F)c5)c4=O)ccc3n2)c1`, with 19.3%; and `CN1CCC(NC(=O)c2ccc(Nc3ncc4cc(/C=C/CNC(=O)c5cncn(Cc6ccc(F)c(F)c6)c5=O)ccc4n3)cc2F)CC1`, with 19.7%. As to `Cc1c(C(=O)NCC#Cc2ccc3cn[nH]c3c2)c(=O)n(Cc2ccc(F)c(F)c2)n1C` [II-3, 2-(3,4-difluorobenzyl)-N-[3-(1H-indazol-6-yl)prop-2-yn-1-yl]-1,5-dimethyl-3-oxo-2,3-dihydro-1H-pyrazole-4-carboxamide], the remaining activity at 10 µM amounted to 12.4%. Then `Cc1c(C(=O)NC/C=C/c2ccc3c(c2)NC(=O)/C3=C\c2ccc[nH]2)c(=O)n(Cc2ccc(F)c(F)c2)n1C` [I-16, 2-(3,4-difluorobenzyl)-1,5-dimethyl-3-oxo-N-{(2E)-3-[(3Z)-2-oxo-3-(1H-pyrrol-2-ylmethylidene)-2,3-dihydro-1H-indol-6-yl]prop-2-en-1-yl}-2,3-dihydro-1H-pyrazole-4-carboxamide], with 15.4%. Then `CC(C)Nc1ncc2cc(/C=C/CNC(=O)c3cccn(Cc4ccc(F)c(F)c4)c3=O)ccc2n1` [IV-91], with 26.1%; and `O=C1Nc2cc(/C=C/CNC(=O)c3cc(Cl)nn(Cc4ccc(F)c(F)c4)c3=O)ccc2/C1=C/c1cnc[nH]1` [I-33, 6-chloro-2-(3,4-difluorobenzyl)-N-{(2E)-3-[(3Z)-3-(1H-imidazol-5-ylmethylidene)-2-oxo-2,3-dihydro-1H-indol-6-yl]prop-2-en-1-yl}-3-oxo-2,3-dihydropyridazine-4-carboxamide], with 12%; and `Cc1c(C#CCNC(=O)c2c(C)n(C)n(Cc3ccc(F)c(F)c3)c2=O)ccc2nc(Nc3ccccc3)ncc12`, with 12.4%. Under `Cc1c(C(=O)NCC#Cc2ccc3nc(Nc4ccc(C(=O)NCCCO)cc4)ncc3c2)c(=O)n(Cc2ccc(F)c(F)c2)n1C` stands 15.2%; under `Cc1c(C(=O)NC/C=C/c2ccc3nc(Nc4ccccn4)ncc3c2)c(=O)n(Cc2ccc(F)c(F)c2)n1C`, 22.7%; under `O=C1Nc2cc(/C=C/CNC(=O)c3cc(Cl)nn(Cc4ccc(F)c(F)c4)c3=O)ccc2/C1=C/c1ccc[nH]1` [I-34, 6-chloro-2-(3,4-difluorobenzyl)-3-oxo-N-{(2E)-3-[(3Z)-2-oxo-3-(1H-pyrrol-2-ylmethylidene)-2,3-dihydro-1H-indol-6-yl]prop-2-en-1-yl}-2,3-dihydropyridazine-4-carboxamide], 21.4%. Regarding `Cc1c(C(=O)NC/C=C/c2ccc3nc(N)ncc3c2)c(=O)n(Cc2ccc(F)c(F)c2)n1C`, the remaining activity at 10 µM was 23%.

With `NCCOc1cc(/C=C/CNC(=O)c2cncn(Cc3ccc(F)c(F)c3)c2=O)cc2cnc(Nc3ccccc3)nc12` [III-63], the remaining activity at 10 µM turned out to be 14.2%.

With `Cc1c(C(=O)NCC#Cc2ccc3nc(Nc4ccccc4F)ncc3c2)c(=O)n(Cc2ccc(F)c(F)c2)n1C`, the remaining activity at 10 µM turned out to be 17.1%. As to `Cc1c(C(=O)NC/C=C/c2cc(OCCCN)c3nc(Nc4ccc(N5CCOCC5)cc4)ncc3c2)c(=O)n(Cc2ccc(F)c(F)c2)n1C`, the remaining activity at 10 µM was 12.5%. Under `Cc1c(C(=O)NCC#Cc2cc(OCCCN)c3nc(Nc4ccc(N5CCOCC5)cc4)ncc3c2)c(=O)n(Cc2ccc(F)c(F)c2)n1C` [III-74] stands 13%; under `Cc1c(C(=O)NCC#Cc2ccc3nc(Nc4ccc(C(=O)NC5CCN(C)CC5)c(F)c4)ncc3c2)c(=O)n(Cc2ccc(F)c(F)c2)n1C`, 11%.
